Reference: ChEMBL document CHEMBL4706587 (Eur J Med Chem, 2020)
pIC50, pKi: −log10 of the molar value.

Assays:
[1] = target: 5-hydroxytryptamine receptor 6 (Homo sapiens, UniProt P50406); assay: Displacement of [3H]-LSD from human 5HT6 receptor expressed in HEK293 cells measured after 1 hr by microbeta plate reader method; type: cell-based
[2] = target: T1, Amine oxidase [flavin-containing] B (Homo sapiens, UniProt P27338); assay: Inhibition of recombinant human MAO-B expressed in baculovirus infected BTI insect cells using p-tyramine as substrate preincubated for 30 mins followed by substrate addition and measured after 1 hr by fluorimetric analysis
T1 sequence (P27338 whole entry): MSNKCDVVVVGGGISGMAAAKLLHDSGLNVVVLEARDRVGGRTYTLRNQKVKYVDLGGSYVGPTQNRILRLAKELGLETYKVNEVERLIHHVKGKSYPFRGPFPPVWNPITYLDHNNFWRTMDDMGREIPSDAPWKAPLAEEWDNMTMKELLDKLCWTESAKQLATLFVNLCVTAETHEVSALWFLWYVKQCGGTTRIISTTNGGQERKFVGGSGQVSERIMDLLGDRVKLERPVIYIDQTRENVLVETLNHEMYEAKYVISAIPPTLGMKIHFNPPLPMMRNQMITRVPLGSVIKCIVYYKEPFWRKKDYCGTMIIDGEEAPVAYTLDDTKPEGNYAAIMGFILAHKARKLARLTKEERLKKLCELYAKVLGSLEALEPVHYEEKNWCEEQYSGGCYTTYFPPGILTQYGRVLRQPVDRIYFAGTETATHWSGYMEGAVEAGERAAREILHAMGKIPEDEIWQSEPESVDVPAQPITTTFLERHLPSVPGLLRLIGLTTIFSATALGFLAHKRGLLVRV

[3] = target: T1, Amine oxidase [flavin-containing] B; settings: BTI, 1 h, read-out: INH
Description: Inhibition of recombinant human MAO-B expressed in baculovirus infected BTI insect cells at 1 uM using p-tyramine as substrate preincubated for 30 mins followed by substrate addition and measured after 1 hr by fluorimetric analysis relative to control

[4] = target: T2, 5-hydroxytryptamine receptor 1A (Homo sapiens, UniProt P08908); assay: Displacement of [3H]8-OH-DPAT from human 5HT1A receptor expressed in HEK293 cells incubated at room temperature for 1 hr by microbeta plate reader analysis; type: cell-based
T2 sequence (P08908 whole entry): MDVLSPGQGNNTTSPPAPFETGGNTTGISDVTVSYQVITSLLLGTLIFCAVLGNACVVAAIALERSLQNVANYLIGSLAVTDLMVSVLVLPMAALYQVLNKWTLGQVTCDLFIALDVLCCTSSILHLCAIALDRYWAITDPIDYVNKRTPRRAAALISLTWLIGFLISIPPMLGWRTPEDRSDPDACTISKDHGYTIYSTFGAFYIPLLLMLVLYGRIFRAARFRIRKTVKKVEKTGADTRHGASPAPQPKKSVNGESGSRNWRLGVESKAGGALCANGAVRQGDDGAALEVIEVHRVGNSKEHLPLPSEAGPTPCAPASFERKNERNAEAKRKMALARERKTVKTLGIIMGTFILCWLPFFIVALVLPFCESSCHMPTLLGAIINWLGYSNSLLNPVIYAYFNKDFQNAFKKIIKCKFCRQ

[5] = target: 5-hydroxytryptamine receptor 2A (Homo sapiens, UniProt P28223); assay: Displacement of [3H]-Ketanserin from human 5HT2A receptor expressed in CHOK1 cells incubated at 27 degree C for 1 hr by microbeta plate reader analysis; type: cell-based, CHO-K1
Sequence of 5-hydroxytryptamine receptor 2A (P28223 whole entry): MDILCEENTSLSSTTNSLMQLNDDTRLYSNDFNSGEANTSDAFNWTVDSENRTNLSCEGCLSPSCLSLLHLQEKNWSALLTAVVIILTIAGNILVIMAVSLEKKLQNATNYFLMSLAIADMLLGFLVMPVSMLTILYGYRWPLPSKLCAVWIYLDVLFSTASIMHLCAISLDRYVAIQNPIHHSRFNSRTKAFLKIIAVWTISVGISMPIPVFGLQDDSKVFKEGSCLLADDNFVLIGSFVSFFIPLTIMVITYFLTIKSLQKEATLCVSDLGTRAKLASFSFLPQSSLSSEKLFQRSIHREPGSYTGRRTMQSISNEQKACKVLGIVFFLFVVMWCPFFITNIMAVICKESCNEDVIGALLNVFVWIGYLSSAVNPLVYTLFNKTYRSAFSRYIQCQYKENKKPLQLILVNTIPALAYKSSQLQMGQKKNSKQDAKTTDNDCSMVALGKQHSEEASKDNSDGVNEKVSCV

[6] = target: 5-hydroxytryptamine receptor 7 (Homo sapiens, UniProt P34969); assay: Displacement of [3H]-5-CT from human 5HT7 receptor expressed in HEK293 cells measured after 1 hr by microbeta plate reader analysis; type: cell-based
Sequence of 5-hydroxytryptamine receptor 7 (P34969 whole entry): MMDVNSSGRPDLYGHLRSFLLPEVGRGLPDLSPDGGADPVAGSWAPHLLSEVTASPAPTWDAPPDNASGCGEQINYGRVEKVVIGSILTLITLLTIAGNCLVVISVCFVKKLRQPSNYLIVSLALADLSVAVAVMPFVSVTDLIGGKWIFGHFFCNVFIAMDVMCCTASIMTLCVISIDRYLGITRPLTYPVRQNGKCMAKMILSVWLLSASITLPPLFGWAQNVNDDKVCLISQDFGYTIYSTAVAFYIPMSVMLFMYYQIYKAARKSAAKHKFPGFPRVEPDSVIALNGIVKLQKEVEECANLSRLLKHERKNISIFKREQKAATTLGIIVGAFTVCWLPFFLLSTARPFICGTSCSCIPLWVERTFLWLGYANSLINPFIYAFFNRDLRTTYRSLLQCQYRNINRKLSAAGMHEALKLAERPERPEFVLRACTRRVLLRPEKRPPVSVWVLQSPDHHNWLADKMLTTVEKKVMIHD

D(2) dopamine receptor = D(2) dopamine receptor (Homo sapiens, UniProt P14416); assay: Displacement of [3H]-raclopride from human D2 receptor expressed in HEK293 cells measured after 1 hr by microbeta plate reader analysis; type: cell-based
Sequence of D(2) dopamine receptor (P14416 whole entry): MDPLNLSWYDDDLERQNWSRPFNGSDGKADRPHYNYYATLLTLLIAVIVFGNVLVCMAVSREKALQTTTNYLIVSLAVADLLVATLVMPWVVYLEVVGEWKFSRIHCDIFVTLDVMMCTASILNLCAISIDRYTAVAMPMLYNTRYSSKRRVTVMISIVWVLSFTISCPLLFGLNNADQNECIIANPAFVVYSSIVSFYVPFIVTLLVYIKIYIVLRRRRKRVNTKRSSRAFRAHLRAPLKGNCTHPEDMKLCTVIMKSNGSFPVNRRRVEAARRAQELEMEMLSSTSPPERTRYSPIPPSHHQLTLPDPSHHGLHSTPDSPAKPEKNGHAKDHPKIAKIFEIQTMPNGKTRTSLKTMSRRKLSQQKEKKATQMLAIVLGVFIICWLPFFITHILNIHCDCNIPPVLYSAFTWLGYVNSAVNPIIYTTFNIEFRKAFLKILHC

[7] = target: T3, Amine oxidase [flavin-containing] A (Homo sapiens, UniProt P21397); assay: Inhibition of recombinant human MAO-A expressed in baculovirus infected BTI insect cells using p-tyramine as substrate preincubated for 30 mins followed by substrate addition and measured after 1 hr by fluorimetric analysis
T3 sequence (P21397 whole entry): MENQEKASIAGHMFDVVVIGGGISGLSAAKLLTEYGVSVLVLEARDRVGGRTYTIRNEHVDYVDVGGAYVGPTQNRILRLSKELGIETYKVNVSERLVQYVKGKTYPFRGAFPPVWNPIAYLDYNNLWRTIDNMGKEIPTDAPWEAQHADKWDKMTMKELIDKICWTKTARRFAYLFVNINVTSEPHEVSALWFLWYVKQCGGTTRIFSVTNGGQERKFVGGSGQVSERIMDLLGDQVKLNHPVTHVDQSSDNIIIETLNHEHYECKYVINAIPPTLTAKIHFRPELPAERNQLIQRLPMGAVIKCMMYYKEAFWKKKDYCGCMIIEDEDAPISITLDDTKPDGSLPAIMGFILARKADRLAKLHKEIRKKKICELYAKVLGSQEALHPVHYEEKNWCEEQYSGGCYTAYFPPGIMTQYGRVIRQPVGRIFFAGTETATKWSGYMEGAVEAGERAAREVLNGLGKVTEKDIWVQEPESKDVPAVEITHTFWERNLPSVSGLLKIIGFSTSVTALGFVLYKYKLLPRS

[8] = target: T4, adrenergic alpha1A receptor (Homo sapiens, UniProt P35348); assay: Displacement of [3H]-prazosin from human recombinant adrenergic alpha1A receptor at 1 uM incubated for 60 mins by radiometric scintillation analysis relative to control; settings: probe [3H]-prazosin
T4 sequence (P35348 whole entry): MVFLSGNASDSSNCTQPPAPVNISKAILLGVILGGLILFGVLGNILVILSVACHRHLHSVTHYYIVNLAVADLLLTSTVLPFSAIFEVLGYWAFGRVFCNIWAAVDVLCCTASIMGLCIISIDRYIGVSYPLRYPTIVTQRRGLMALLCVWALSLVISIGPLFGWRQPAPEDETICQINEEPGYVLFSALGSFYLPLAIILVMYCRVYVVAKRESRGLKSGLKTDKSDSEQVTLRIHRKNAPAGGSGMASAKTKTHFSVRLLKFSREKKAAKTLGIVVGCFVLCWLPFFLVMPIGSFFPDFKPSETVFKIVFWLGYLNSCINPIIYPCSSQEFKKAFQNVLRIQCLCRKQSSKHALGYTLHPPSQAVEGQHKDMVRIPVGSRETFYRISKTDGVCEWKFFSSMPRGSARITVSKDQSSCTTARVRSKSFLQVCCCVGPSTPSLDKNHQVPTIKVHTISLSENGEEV

beta1 adrenoceptor = beta1 adrenoceptor (Homo sapiens, UniProt P08588); assay: Displacement of [3H](-)CGP 12177 from human recombinant beta1 adrenoceptor at 1 uM after 60 mins by radiometric scintillation analysis relative to control; settings: probe [3H](-)CGP 12177
Sequence of beta1 adrenoceptor (P08588 whole entry): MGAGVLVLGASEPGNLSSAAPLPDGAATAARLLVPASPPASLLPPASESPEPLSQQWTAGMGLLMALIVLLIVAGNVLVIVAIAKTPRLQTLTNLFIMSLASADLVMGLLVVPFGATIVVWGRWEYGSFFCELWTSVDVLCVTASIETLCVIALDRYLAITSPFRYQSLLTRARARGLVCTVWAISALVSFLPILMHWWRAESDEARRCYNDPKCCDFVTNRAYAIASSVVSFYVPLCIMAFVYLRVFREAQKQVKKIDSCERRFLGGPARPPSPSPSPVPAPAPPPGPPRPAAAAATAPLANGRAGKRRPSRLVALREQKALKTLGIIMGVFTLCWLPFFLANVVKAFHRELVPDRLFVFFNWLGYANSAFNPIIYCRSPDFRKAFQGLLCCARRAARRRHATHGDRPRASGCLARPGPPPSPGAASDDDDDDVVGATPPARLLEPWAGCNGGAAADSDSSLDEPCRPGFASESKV

histamine H1 receptor = histamine H1 receptor (Homo sapiens, UniProt P35367); assay: Displacement of [3H]pyrilamine from human recombinant histamine H1 receptor at 1 uM after 60 mins by radiometric scintillation analysis relative to control; settings: probe [3H]pyrilamine
Sequence of histamine H1 receptor (P35367 whole entry): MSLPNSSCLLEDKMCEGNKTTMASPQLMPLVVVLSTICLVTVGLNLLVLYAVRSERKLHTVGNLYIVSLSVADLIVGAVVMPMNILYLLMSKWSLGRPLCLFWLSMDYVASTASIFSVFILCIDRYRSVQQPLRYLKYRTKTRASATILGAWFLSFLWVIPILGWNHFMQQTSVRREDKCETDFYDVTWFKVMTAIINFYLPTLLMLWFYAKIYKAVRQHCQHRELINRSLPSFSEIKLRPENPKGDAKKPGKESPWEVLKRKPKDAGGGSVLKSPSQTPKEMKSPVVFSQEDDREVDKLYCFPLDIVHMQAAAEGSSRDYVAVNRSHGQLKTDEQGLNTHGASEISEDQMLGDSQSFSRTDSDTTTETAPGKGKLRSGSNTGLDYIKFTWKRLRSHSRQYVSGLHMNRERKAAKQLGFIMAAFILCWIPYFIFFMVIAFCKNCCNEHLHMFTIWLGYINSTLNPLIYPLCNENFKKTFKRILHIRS

muscarinic M1 receptor = target: T5, muscarinic M1 receptor (Homo sapiens, UniProt P11229); assay: Displacement of [3H]pirenzepine from human recombinant muscarinic M1 receptor at 1 uM after 60 mins by radiometric scintillation analysis relative to control; settings: probe [3H]pirenzepine
T5 sequence (P11229 whole entry): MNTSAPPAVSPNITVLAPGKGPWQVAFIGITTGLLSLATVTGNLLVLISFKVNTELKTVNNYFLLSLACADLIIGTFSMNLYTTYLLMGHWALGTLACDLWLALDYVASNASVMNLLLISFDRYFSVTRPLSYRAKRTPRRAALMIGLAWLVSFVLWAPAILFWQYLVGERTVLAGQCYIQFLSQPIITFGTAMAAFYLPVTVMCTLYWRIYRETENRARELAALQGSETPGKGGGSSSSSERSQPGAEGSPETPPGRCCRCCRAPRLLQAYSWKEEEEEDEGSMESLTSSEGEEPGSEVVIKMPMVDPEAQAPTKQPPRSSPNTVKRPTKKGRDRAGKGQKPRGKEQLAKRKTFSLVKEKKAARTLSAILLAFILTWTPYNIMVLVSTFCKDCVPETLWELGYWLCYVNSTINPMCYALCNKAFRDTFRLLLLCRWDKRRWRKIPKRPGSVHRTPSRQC

[9] = Effective permeability of compound in PBS at pH 7.4 at 100 uM incubated for 5 hrs by PAMPA-BBB based UPLC-MS analysis; type: ADME; settings: read-out: Peff
[10] = Metabolic stability in rat liver microsomes assessed as intrinsic clearance at 10 uM incubated for 10 mins followed by NADPH regeneration system addition and measured after 60 mins by UPLC-MS analysis; type: ADME, Microsome; settings: time 70 min, read-out: CLH
[11] = Cmax in Wistar rat at 3 mg/kg, po measured up to 240 mins; type: ADME, organism-based; design: route oral, dose 3 mg/kg, time <=240; settings: in vivo
[12] = Tmax in Wistar rat at 3 mg/kg, po measured up to 240 mins; type: ADME, organism-based; settings: in vivo
[13] = Half life in Wistar rat at 3 mg/kg, po measured up to 240 mins; type: ADME, organism-based; settings: in vivo
[14] = Cytotoxicity against mouse C8D1A astrocytes upto 25 uM by MTT assay; settings: astrocyte
[15] = Cytotoxicity against mouse C8D1A astrocytes upto 25 uM by LDH assay; settings: astrocyte

Sequence of 5-hydroxytryptamine receptor 6 (P50406 whole entry): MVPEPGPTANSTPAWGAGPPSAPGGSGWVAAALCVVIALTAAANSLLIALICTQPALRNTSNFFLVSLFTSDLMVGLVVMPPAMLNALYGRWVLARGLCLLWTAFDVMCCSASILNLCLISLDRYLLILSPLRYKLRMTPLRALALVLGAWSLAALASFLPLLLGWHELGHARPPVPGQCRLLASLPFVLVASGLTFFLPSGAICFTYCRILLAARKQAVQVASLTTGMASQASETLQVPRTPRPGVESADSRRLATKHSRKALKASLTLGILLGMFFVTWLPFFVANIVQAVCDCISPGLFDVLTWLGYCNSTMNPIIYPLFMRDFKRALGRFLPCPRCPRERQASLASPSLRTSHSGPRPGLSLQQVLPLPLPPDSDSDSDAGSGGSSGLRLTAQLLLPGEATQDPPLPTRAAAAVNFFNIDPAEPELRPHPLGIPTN

SMILES: C[C@H](NCc1ccc(OCCCCCCN2CCN(c3cccc4c3ccn4Cc3cccc(Cl)c3)CC2)cc1)C(N)=O
- pKi [1]: 6.47
- pIC50 [2]: < 6.00
- inhibition at 1 µM [3]: 23%

SMILES: C[C@H](NCc1ccc(OCCCN2CCN(c3cccc4c3ccn4Cc3cccc(Cl)c3)CC2)cc1)C(N)=O
- pKi [1]: 6.80
- pIC50 [2]: < 6.00
- inhibition at 1 µM [3]: 47%

SMILES: C#CCN(C)Cc1ccc(OCCCCCCN2CCN(c3cccc4c3ccn4Cc3cccc(Cl)c3)CC2)cc1
- pKi [1]: 6.86
- pIC50 [2]: < 6.00
- inhibition at 1 µM [3]: 32%

SMILES: C#CCNC1CCc2c(OCCCCCN3CCN(c4cccc5c4ccn5S(=O)(=O)c4ccccc4)CC3)cccc21 (stereo not drawn)
- pKi [1]: 7.29
- pIC50 [2]: 6.79
- inhibition at 1 µM [3]: 90%

SMILES: C#CCN(C)Cc1ccc(OCCCCCN2CCN(c3cccc4c3ccn4Cc3cccc(Cl)c3)CC2)cc1
- pKi [1]: 6.85
- pIC50 [2]: 7.52
- inhibition at 1 µM [3]: 100%

SMILES: C#CCN(C)Cc1ccc(OCCCCCN2CCN(c3cccc4c3ccn4S(=O)(=O)c3ccccc3)CC2)cc1
- pIC50 [2]: 6.81
- pKi [4]: 6.16
- pKi [5]: 6.38
- pKi [6]: 5.10
- pKi (D(2) dopamine receptor): 6.09
- pIC50 [7]: 5.98
- inhibition at 1 h, 1 µM [8]: 37%
- inhibition at 1 h, 1 µM (beta1 adrenoceptor): 5%
- inhibition at 1 h, 1 µM (histamine H1 receptor): 13%
- inhibition at 1 h, 1 µM (muscarinic M1 receptor): 4%
- Papp at 5 h, 100 µM [9]: 4.84 ×10⁻⁶ cm/s
- CLint scaled at 10 µM [10]: 85 mL/min/kg
- Cmax [11]: 72.7 ng/mL
- Tmax [12]: 0.5 h
- half-life [13]: 28 h
- Activity [14]: Non-Toxic
- Activity [15]: Non-Toxic
- inhibition at 1 µM [3]: 91%

SMILES: C#CCNC1CCc2c(OCCCCN3CCN(c4cccc5c4ccn5Cc4cccc(Cl)c4)CC3)cccc21 (stereo not drawn)
- pKi [1]: 6.95
- pIC50 [2]: 6.57
- inhibition at 1 µM [3]: 100%

SMILES: C[C@H](NCc1ccc(OCCCCCN2CCN(c3cccc4c3ccn4Cc3cccc(Cl)c3)CC2)cc1)C(N)=O
- pKi [1]: 6.63
- pIC50 [2]: < 6.00
- inhibition at 1 µM [3]: 43%

SMILES: C#CCNC1CCc2c(OCCCCCN3CCN(c4cccc5c4ccn5Cc4cccc(Cl)c4)CC3)cccc21 (stereo not drawn)
- pKi [1]: 6.65
- pIC50 [2]: 6.34
- inhibition at 1 µM [3]: 80%

SMILES: C#CCNC1CCc2c(OCCCCCCN3CCN(c4cccc5c4ccn5Cc4cccc(Cl)c4)CC3)cccc21 (stereo not drawn)
- pKi [1]: 6.59
- pIC50 [2]: < 6.00
- inhibition at 1 µM [3]: 34%

SMILES: Clc1cccc(Cn2ccc3c(N4CCNCC4)cccc32)c1
- pKi [1]: 8.15
- inhibition at 1 µM [3]: 3%

SMILES: C[C@H](NCc1ccc(OCCCCN2CCN(c3cccc4c3ccn4S(=O)(=O)c3ccccc3)CC2)cc1)C(N)=O
- pKi [1]: 7.17
- pIC50 [2]: < 6.00
- inhibition at 1 µM [3]: 20%

SMILES: C#CCNC1CCc2c(OCCCN3CCN(c4cccc5c4ccn5Cc4cccc(Cl)c4)CC3)cccc21 (stereo not drawn)
- pKi [1]: 7.11
- pIC50 [2]: < 6.00
- inhibition at 1 µM [3]: 31%

SMILES: C#CCN(C)Cc1ccc(OCCCCN2CCN(c3cccc4c3ccn4Cc3cccc(Cl)c3)CC2)cc1
- pKi [1]: 6.71
- pIC50 [2]: 6.49
- inhibition at 1 µM [3]: 85%

SMILES: C#CCN(C)Cc1ccc(OCCCCN2CCN(c3cccc4c3ccn4S(=O)(=O)c3ccccc3)CC2)cc1
- pKi [1]: 7.27
- pIC50 [2]: < 6.00
- inhibition at 1 µM [3]: 51%

SMILES: C[C@H](NCc1ccc(OCCCCCN2CCN(c3cccc4c3ccn4S(=O)(=O)c3ccccc3)CC2)cc1)C(N)=O
- pKi [1]: 7.19
- pIC50 [2]: < 6.00
- inhibition at 1 µM [3]: 17%

SMILES: C#CCN[C@@H]1CCc2ccccc21 [RASAGILINE]
- pKi [1]: 8.85

SMILES: O=S(=O)(c1ccccc1)n1ccc2c(N3CCNCC3)cccc21
- inhibition at 1 µM [3]: 3%

SMILES: C#CCNC1CCc2c(OCCN3CCN(c4cccc5c4ccn5Cc4cccc(Cl)c4)CC3)cccc21 (stereo not drawn)
- pKi [1]: 7.00
- pIC50 [2]: < 6.00
- inhibition at 1 µM [3]: 35%

SMILES: C#CCNC1CCc2c(OCCCCN3CCN(c4cccc5c4ccn5S(=O)(=O)c4ccccc4)CC3)cccc21 (stereo not drawn)
- pKi [1]: 7.30
- pIC50 [2]: < 6.00
- inhibition at 1 µM [3]: 44%

SMILES: C[C@H](NCc1ccc(OCCCCN2CCN(c3cccc4c3ccn4Cc3cccc(Cl)c3)CC2)cc1)C(N)=O
- pKi [1]: 6.79
- pIC50 [2]: < 6.00
- inhibition at 1 µM [3]: 24%
